Literature values in patent US12037433B2, “(Co)polymers of hydrophobic monomers and methods of making and use thereof” (BASF SE, priority 2018, dated 2024).

How the values were obtained:
[1] = for solubility in water, measured at 20° C.: additional hydrophobic monomers

Question: Which “Partitioning Coefficient n-octanol/water [log Kow at 25° C.]” value does the source give for `C=C(C)C(=O)OC1CCCCC1` [Cyclohexyl methacrylate (CHMA), Cyclohexyl methacrylate] here?
Answer: Its value is 3.54.

Question: What about the “Water Solubility at 20° C.” value [1] of the same compound?
Answer: Its value is 100 µg/mL.

Question: Which “Partitioning Coefficient n-octanol/water [log Kow at 25° C.]” value does the source give for `C=CC(=O)OCCCCCCCCCCCCCCCCC` [Heptadecyl acrylate (C17 A), Heptadecyl acrylate] here?
Answer: Its value is 9.2.

Question: What about the “Water Solubility at 20° C.” value [1] of the same compound?
Answer: The value was 40 µg/mL.

Question: For `C=C(C)C(=O)OCCCCCCCCCCCCCCCCC` [Heptadecyl methacrylate (C17 MA), Heptadecyl methacrylate], which “Partitioning Coefficient n-octanol/water [log Kow at 25° C.]” value is on record?
Answer: Its value is 6.5.

Question: And the “Water Solubility at 20° C.” value [1]?
Answer: The value was 50 µg/mL.

Question: For `C=CC(=O)OCCCCCCCCCCCC` [Lauryl Acrylate (LA), Lauryl Acrylate], which “Partitioning Coefficient n-octanol/water [log Kow at 25° C.]” value is on record?
Answer: The value was 6.13.

Question: What about the “Water Solubility at 20° C.” value [1] of the same compound?
Answer: Its value is 40 µg/mL.

Question: For `C=C(C)C(=O)OCCCCCCCCCCCC` [Lauryl Methacrylate (LMA), Lauryl Methacrylate], which “Partitioning Coefficient n-octanol/water [log Kow at 25° C.]” value is on record?
Answer: The value was 6.45.

Question: What about the “Water Solubility at 20° C.” value [1] of the same compound?
Answer: Its value is 30 µg/mL.

Question: For `C=CC(=O)OCCCCCCCCCCCCCCCCCC` [Stearyl Acrylate (SA), Stearyl Acrylate], which “Partitioning Coefficient n-octanol/water [log Kow at 25° C.]” value is on record?
Answer: Its value is 9.28.

Question: For `C=C(C)C(=O)OCCCCCCCCCCCCCCCCCC` [Stearyl Methacrylate (SMA), Stearyl Methacrylate], which “Partitioning Coefficient n-octanol/water [log Kow at 25° C.]” value is on record?
Answer: Its value is 9.62.

Question: With `C=CC=C` [butadiene] as the compound, how does the “solubility in water, measured at 20° C.” value [1] read?
Answer: Its value is 0.08 g/100 g water.

Question: Which “solubility in water, measured at 20° C.” value [1] does the source give for `C=Cc1ccccc1` [styrene] here?
Answer: Its value is 0.03 g/100 g water.

Question: Which “solubility in water, measured at 20° C.” value [1] does the source give for `C=COC(=O)C(C)(C)C` [vinyl neo-pentanoate] here?
Answer: Its value is 0.08 g/100 g water.
